Measured values reported in ChEMBL document CHEMBL1146978 (Bioorg Med Chem Lett, 2006).

Key:
Mus musculus = test: Anticonvulsant activity against DBA/2 mouse at 30 mg/kg, po 2 hrs post dose; type: functional
[1] = biological target: Voltage-dependent calcium channel alpha2delta subunit (Sus scrofa, UniProt O77773); test: Displacement of [3H]gabapentin from alpha-2delta calcium channel in pig brain membrane; type: cell membranes
[2] = Inhibition of [3H]leucine uptake at System L in CHO cells; type: cell-based
Rattus norvegicus = test: Anxiolytic effect in rat at 30 mg/kg, po by Vogel water lick conflict assay assessed by ability to reverse shock-induced suppression of drinking; type: functional

Sequence of Voltage-dependent calcium channel alpha2delta subunit (O77773 whole entry): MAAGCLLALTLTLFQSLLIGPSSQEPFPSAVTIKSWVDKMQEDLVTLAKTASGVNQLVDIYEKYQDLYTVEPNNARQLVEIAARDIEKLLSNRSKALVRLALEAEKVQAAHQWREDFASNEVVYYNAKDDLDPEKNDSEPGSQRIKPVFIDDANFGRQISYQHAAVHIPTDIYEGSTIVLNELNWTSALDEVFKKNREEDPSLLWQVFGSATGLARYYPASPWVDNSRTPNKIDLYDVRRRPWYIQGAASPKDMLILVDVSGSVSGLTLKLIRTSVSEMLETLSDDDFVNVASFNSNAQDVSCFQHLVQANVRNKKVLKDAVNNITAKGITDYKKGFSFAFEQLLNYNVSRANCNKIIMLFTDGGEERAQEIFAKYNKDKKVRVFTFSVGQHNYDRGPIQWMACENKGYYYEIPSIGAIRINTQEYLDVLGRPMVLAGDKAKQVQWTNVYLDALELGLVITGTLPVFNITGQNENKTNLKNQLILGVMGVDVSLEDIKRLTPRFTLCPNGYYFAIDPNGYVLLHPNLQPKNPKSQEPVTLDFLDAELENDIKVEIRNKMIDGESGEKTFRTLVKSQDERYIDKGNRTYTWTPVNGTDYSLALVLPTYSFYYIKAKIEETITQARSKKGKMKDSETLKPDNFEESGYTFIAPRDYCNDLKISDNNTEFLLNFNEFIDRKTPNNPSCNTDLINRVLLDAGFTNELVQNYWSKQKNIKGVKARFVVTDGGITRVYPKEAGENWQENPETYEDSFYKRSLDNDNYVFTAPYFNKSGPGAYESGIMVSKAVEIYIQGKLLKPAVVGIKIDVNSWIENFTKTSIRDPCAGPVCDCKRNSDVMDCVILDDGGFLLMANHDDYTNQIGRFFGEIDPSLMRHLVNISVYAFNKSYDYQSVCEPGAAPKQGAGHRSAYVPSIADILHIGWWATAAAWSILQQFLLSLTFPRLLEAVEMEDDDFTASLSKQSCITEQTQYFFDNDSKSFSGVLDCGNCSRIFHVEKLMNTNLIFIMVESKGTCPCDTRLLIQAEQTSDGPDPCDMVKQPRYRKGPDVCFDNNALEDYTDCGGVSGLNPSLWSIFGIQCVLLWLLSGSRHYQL

NC[C@H](CC(=O)O)Cc1ccco1
Activity (Mus musculus): 40% | IC50 [1]: 0.178 µM | IC50 [2]: 10000 µM

NCC(CC(=O)O)Cc1ccccc1 (stereo not given)
Activity (Mus musculus): 0% | IC50 [1]: > 10000 µM

NCC(CC(=O)O)Cc1ccsc1 (stereo not given)
Activity (Rattus norvegicus): -3% | Activity (Mus musculus): 60% | IC50 [1]: 0.832 µM | IC50 [2]: 7030 µM

NC[C@@H](CC(=O)O)Cc1ccco1
Activity (Rattus norvegicus): 0.28% | Activity (Mus musculus): 0% | IC50 [1]: 1.46 µM | IC50 [2]: 10000 µM

NCC(CC(=O)O)Cc1ccco1 (stereo not given)
Activity (Rattus norvegicus): 5.3% | Activity (Mus musculus): 20% | IC50 [1]: 0.421 µM | IC50 [2]: 10000 µM

CC(C)C[C@H](CN)CC(=O)O [PREGABALIN]
Activity (Rattus norvegicus): 100% | Activity (Mus musculus): 100% | IC50 [2]: 284 µM

NCC(CC(=O)O)Cc1ccoc1 (stereo not given)
Activity (Rattus norvegicus): -17% | Activity (Mus musculus): 0% | IC50 [1]: 0.518 µM | IC50 [2]: 1420 µM

NCC(CC(=O)O)CC1CCOC1 (stereo not given)
Activity (Mus musculus): 0% | IC50 [1]: > 10000 µM

NCC(CC(=O)O)Cc1cccs1 (stereo not given)
Activity (Rattus norvegicus): 10.3% | Activity (Mus musculus): 40% | IC50 [1]: 2.14 µM | IC50 [2]: 2940 µM
